System: agricultural and horticultural crops
Settings: Nitrobenzene in a suitable formulation, used as spray or in granular form

O=[N+]([O-])c1ccccc1 [Nitrobenzene]
increasing flowers: 40 to 45%

From patent US20050266997A1, “Flowering stimulant composition using nitrobenzene” (priority 2002, published 2005)
